Experimental data reported in publication PMC9313321 (Biomedicines, 2022).
“And” between values parts separate entries of the source, which are not always exact repeats. Equal entries are not always repeated.

How the values were obtained:
Assay type in all cases: biochemical
Aβ42 self-aggregation = target: T1, Aβ42 self-aggregation (Homo sapiens, UniProt P05067); experiment: biochemical; conditions: for inhibition at 20 µM: read-out: Aβ42 Self-Aggreg. Inhib; for Aβ42 Self-Aggreg. Inhib: 20 μM inhibitor, absence of copper, thioflavin-T fluorescence, 37 °C 24 h
T1 construct: Beta-amyloid protein, fragment 1-42; purchased GeneCust
Description: (§1) The inhibition of Aβ42 aggregation and Cu(II)-induced Aβ42 aggregation, carried out by the RIV–BIM hybrids, was studied using a reported method based on the fluorescence emission of thioflavin T [52, 53].
(§2) Solutions of phosphate buffer 0.215 M at pH = 8.00, Na2CO3 300 μM in distilled water, NaOH 250 mM in distilled water, glycine-NaOH 50 mM buffer at pH = 8.50 and CuCl2 240 μM in phosphate buffer were prepared. Stock solutions of […] of the RIV–BIM compounds were prepared in MeOH (with 20% DMSO). Working solutions of 240 μM of the RIV–BIM hybrids were prepared by the proper dilution of their stock solutions with phosphate buffer. A working solution of glycine-NaOH 50 mM buffer at pH = 8.50 containing 5 μM of thioflavin T (ThT) was prepared daily. Aβ42 (GeneCust) was pre-treated with 1,1,1,3,3,3-hexafluoro-2-propanol (HFIP) to obtain a solution of 0.149 mM by brief sonication and vortexing, which was kept covered overnight at room temperature. From the Aβ42 solution, aliquots of 250 μL were placed into Eppendorf tubes under ice and set to evaporate inside a hood at room temperature overnight. When the contents of the Eppendorf tubes were dried, the Aβ42 aliquots were stored at −20 °C until needed. To obtain the Aβ42 working solution, the Aβ42 aliquots were dissolved with a freshly prepared mixture of 69.5 μL of CH3CN/Na2CO3 (300 μM)/NaOH (250 mM) (48.3/48.3/3.4, v/v/v) by brief sonication and vortexing to obtain an Aβ42 solution of 531.24 μM. To this solution, 392.5 μL of phosphate buffer was added, achieving an Aβ42 working solution of 80 μM. To prepare the incubations, three replicates of Aβ42 alone (30 μL Aβ42 80 μM + 30 μL phosphate buffer), Aβ42 with RIV–BIM (30 μL Aβ42 80 μM + 10 μL RIV–BIM 240 μM + 20 μL phosphate buffer), Aβ42 with copper (30 μL Aβ42 80 μM + 10 μL CuCl2 240 μM + 20 μL phosphate buffer) and Aβ42 with copper and RIV–BIM (30 μL Aβ42 80 μM + 10 μL CuCl2 240 μM + 10 μL RIV–BIM 240 μM + 10 μL phosphate buffer) were placed in Eppendorfs. To obtain the blank solutions, a similar number of Eppendorfs, replacing Aβ42 with phosphate buffer, were prepared. Incubations were performed in a water bath at 37 °C with agitation for 24 h. Afterwards, 180 μL of glycine-NaOH 50 mM buffer at pH = 8.50 containing 5 μM of ThT was added to each Eppendorf and then they were vortexed. Finally, 200 μL of solution from each Eppendorf was placed in the wells of a microplate and fluorescence measurements were monitored using a Spectramax Gemini EM (Molecular Devices) fluorimeter with an excitation wavelength of 446 nm and an emission wavelength of 485 nm. Blank signals were subtracted from the corresponding samples. The fluorescence intensity of the Aβ42 + RIV–BIM solution was compared to that of the Aβ42 solution to obtain the inhibition of Aβ42 self-aggregation for each compound. The fluorescence intensity of the Aβ42 + Cu(II) + RIV–BIM solution was compared to that of the Aβ42 + Cu(II) solution to obtain the inhibition of the Cu(II)-induced Aβ42 aggregation for each hybrid.
(§3) The anti-amyloidogenic capacity of the compounds was assessed in vitro using the thioflavin T (ThT) method. To record fluorescence emission, excitation (446 nm) and emission (485 nm) wavelengths were used. When ThT binds to amyloid fibrils, an increase in absorbance and emission of this dye occurs with concomitant red shifts of the respective spectra. The percent of inhibition of Aβ42 aggregation is shown in Table 1, and the assays were performed in the presence of 20 μM of inhibitor. These concentration conditions were used to overcome solubility problems of some compounds in the aqueous phosphate buffer working medium. […]. […]

Aβ42 fibrils = target: T2, Aβ42 fibrils (Homo sapiens, UniProt P05067); experiment: TEM assay of Aβ42 fibrils in the absence of Cu(II); conditions: 48 h 37 °C; for Aβ42 fibril width / Reduction of fibril width vs Aβ42 alone: TEM; for Aβ42 fibril width: CAβ42 = CL = 50 µM, Aβ42 alone 4.9 ± 0.2 nm; for Reduction of fibril width vs Aβ42 alone: 50 µM
T2 construct: Beta-amyloid protein, fragment 1-42; purchased Sigma-Aldrich
Description: To perform the TEM assays, commercial Aβ42 purchased from Sigma-Aldrich was pre-treated with pure HFIP, a beta-sheet disruptor, to obtain homogeneous and monomeric Aβ42 [54]. Then, 222 µL of HFIP was added to 1 mg of Aβ42, after which the mixture was vortexed and aliquoted into Eppendorfs. The Eppendorfs were placed in a SpeedVac at 45 °C for 30 min until all HFIP was evaporated. Pre-treated Aβ42 was stored at −20 °C until use. To start the amyloid incubations, pre-treated Aβ42 was equilibrated at room temperature for 30 min. A solution of 5 mM was obtained by dissolution in DMSO and sonication for 5 min. Subsequently, 10 mM HCl was added to obtain a working Aβ42 solution of 200 µM. Stock solutions of Cu(II) and RIV–BIM compounds (4a–d, 5a,b and 5d) at 200 µM were prepared on the same day and working solutions of Aβ42, Aβ42 + Cu(II), Aβ42 + RIV–BIM and Aβ42 + Cu(II) + RIV–BIM (CAβ42 = CCu = CL = 50 µM) were prepared by diluting stock solutions in 10 mM HCl. Working solutions were incubated for 48 h at 37 °C before being analyzed by TEM. Samples were negatively stained with uranyl acetate 2% (w/v) and analyzed at 100 kv with a JEOL JEM 1400 Plus transmission electron microscope. Fibrils of Aβ42 alone were compared with Aβ42 + RIV–BIM fibrils, and fibrils of Aβ42 + Cu(II) were compared with Aβ42 + Cu(II) + RIV–BIM in order to evaluate the inhibition of the amyloid aggregation, and the widths and lengths of fibrils were measured for each sample. The ImageJ program was used to measure the fibrils (n = 200).
To perform the Aβ42 aggregation assays by TEM, fibrils were incubated using a fluorescence procedure previously described.
Amyloid fibrils remained disaggregated under the effect of the RIV–BIM compounds after 48 h of incubation. […] For each of the performed assays, fibril width was measured, and the results are graphed in Figure 5. Aβ42 fibril width in the absence of Cu(II) (Figure 5a) was 4.9 ± 0.2 nm, and it was modified in the presence of all RIV–BIM compounds: compound 4d was the only one that widened amyloid fibrils (6.7 ± 0.3 nm), while the rest of the compounds narrowed them (3.3–4.5 nm).

[1] = target: T3, Cu(II)-induced Aβ42 aggregation (Homo sapiens, UniProt P05067); experiment: Inhibition of Cu(II)-induced Aβ42 aggregation (thioflavin T fluorescence); conditions: for inhibition at 20 µM: read-out: Aβ42 Cu-Ind. Aggreg. Inhib, copper (40 μM), 20 μM inhibitor, thioflavin-T fluorescence, 37 °C 24 h
T3 construct: Beta-amyloid protein, fragment 1-42; purchased GeneCust
Description: as §1, §2, §3

T3 sequence (P05067 672-713 limits assumed): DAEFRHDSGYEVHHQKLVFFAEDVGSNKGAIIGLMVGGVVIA
T1 sequence (P05067 672-713 limits assumed): as above
T2 sequence (P05067 672-713 limits assumed): as above

With `CCN(C)C(=O)Oc1cccc(NC(=O)c2ccc3nc(-c4ccccc4O)[nH]c3c2)c1` [Compound 4a, 3-(2-(2-Hydroxyphenyl)-1H-benzo[d]imidazole-6-carboxamido)phenyl Ethylmethylcarbamate] the inhibition at 20 µM (Aβ42 self-aggregation) was 39%, the “Appearance of Aβ42 fibrils in TEM images” value (Aβ42 fibrils) was “shortest fibrils” and the Aβ42 fibril width (Aβ42 fibrils) was 4.1 nm. It also gave an inhibition at 20 µM [1] of 41.2%.
`CCN(C)C(=O)Oc1cccc(CNC(=O)c2ccc3nc(-c4ccccc4O)[nH]c3c2)c1` [Compound 4b, 3-((2-(2-Hydroxyphenyl)-1H-benzo[d]imidazole-6-carboxamido)methyl) Phenyl Ethylmethylcarbamate] was tested, and the inhibition at 20 µM (Aβ42 self-aggregation) was 39.6%, the “Appearance of Aβ42 fibrils in TEM images” value (Aβ42 fibrils) was “shortest fibrils” and the Aβ42 fibril width (Aβ42 fibrils) was 4.1 nm. It also gave an inhibition at 20 µM [1] of 48.8%.
With `CCN(C)C(=O)Oc1cccc(CCNC(=O)c2ccc3nc(-c4ccccc4O)[nH]c3c2)c1` [Compound 4c, 3-(2-(2-(2-Hydroxyphenyl)-1H-benzo[d]imidazole-6-carboxamido)ethyl) Phenylethylmethylcarbamate] the “Aβ42 Self-Aggreg. Inhib” value (Aβ42 self-aggregation) was “very weakly effective”, the inhibition at 20 µM (Aβ42 self-aggregation) was 21.2% and the “Appearance of Aβ42 fibrils in TEM images” value (Aβ42 fibrils) was “quite elongated fibrils”. For the same molecule, the Aβ42 fibril width (Aβ42 fibrils) was 4.1 nm and the inhibition at 20 µM [1] was 22%.
`CCN(C)C(=O)Oc1ccc(CCCNC(=O)c2ccc3nc(-c4ccccc4O)[nH]c3c2)cc1` [Compound 4d, 4-(3-(2-(2-Hydroxyphenyl)-1H-benzo[d]imidazole-6-carboxamido)propyl) Phenyl Ethylmethylcarbamate] was tested, and the “Aβ42 Self-Aggreg. Inhib” value (Aβ42 self-aggregation) was “very weakly effective”, the inhibition at 20 µM (Aβ42 self-aggregation) was 20.1% and the “Appearance of Aβ42 fibrils in TEM images” value (Aβ42 fibrils) was “quite elongated fibrils”. For the same molecule, the Aβ42 fibril width (Aβ42 fibrils) was 6.7 nm and 6.7 ± 0.3 nm and the inhibition at 20 µM [1] was 21.3%.
In the case of `CCN(C)C(=O)Oc1cccc(NC(=O)c2cccc3[nH]c(-c4ccccc4O)nc23)c1` [Compound 5a, 3-(2-(2-Hydroxyphenyl)-1H-benzo[d]imidazole-4-carboxamido)phenyl Ethylmethylcarbamate], the inhibition at 20 µM (Aβ42 self-aggregation) was 44.5%, the Aβ42 fibril width (Aβ42 fibrils) was 4.5 nm and the inhibition at 20 µM [1] was 45.4%.
For `CCN(C)C(=O)Oc1cccc(CNC(=O)c2cccc3[nH]c(-c4ccccc4O)nc23)c1` [Compound 5b, 3-((2-(2-Hydroxyphenyl)-1H-benzo[d]imidazole-4-carboxamido)methyl) Phenyl Ethylmethylcarbamate], the inhibition at 20 µM (Aβ42 self-aggregation) was 58.7%, the “Appearance of Aβ42 fibrils in TEM images” value (Aβ42 fibrils) was “shortest fibrils” and the “Reduction of fibril width vs Aβ42 alone” value (Aβ42 fibrils) was 22.4%. For the same molecule, the Aβ42 fibril width (Aβ42 fibrils) was 3.8 nm and 3.8 ± 0.1 nm and the inhibition at 20 µM [1] was 60.8%.
In the case of `CCN(C)C(=O)Oc1ccc(CCCNC(=O)c2cccc3[nH]c(-c4ccccc4O)nc23)cc1` [Compound 5d, 4-(3-(2-(2-Hydroxyphenyl)-1H-benzo[d]imidazole-4-carboxamido) Propyl) Phenyl Ethyl(methyl)carbamate], the inhibition at 20 µM (Aβ42 self-aggregation) was 42.1%, the “Reduction of fibril width vs Aβ42 alone” value (Aβ42 fibrils) was 32.7% and the Aβ42 fibril width (Aβ42 fibrils) was 3.3 nm and 3.3 ± 0.2 nm. The “Aβ42 Cu-Ind. Aggreg. Inhib” value ([1]; copper (40 μM), 20 μM inhibitor, thioflavin-T fluorescence, 37 °C 24 h) was 40.3% and the inhibition at 20 µM [1] was 41.2 to 60.8%.
